# PMC8951016, “Computational Design and Biological Evaluation of Analogs of Lupin Peptide P5 Endowed with Dual PCSK9/HMG-CoAR Inhibiting Activity” (Pharmaceutics, 2022)
# Experiments:
# [1] = test system: human intestinal Caco-2 cells; details: cited from earlier work
# LDLR = experiment: Western blot, LDLR protein level in HepG2; format: cell-based, human; details: 50 µM, 24 h
# Description: (§1) A total of 1.5 × 10^5 HepG2 cells/well (24-well plate) were treated with 50 μM of P5 and P5 analogs for 24 h. Immunoblotting experiments were performed using optimized protocol. See Supplementary Materials for further details.
# (§2) PBS for 1.5 h at RT. LDLR primary antibody solution (1:3000 in 5% BSA in PBS, 25 µL/well) was incubated O/N at +4 °C. Subsequently, the primary antibody solution was discarded and each sample was washed 5 times with 100 µL/well of PBS (each wash was for 5 min at RT). Goat anti-rabbit Ig-HRP secondary antibody solution (Santa Cruz) (1:6000 in 5% BSA in PBS, 50 µL/well), was added and incubated 1 h at RT. […] The reaction was stopped with 2 M H2SO4 and then the absorbance at 450 nm was measured using the microplate reader Synergy H1 (Winoo-ski, VT, USA). After the read, cells were stained by adding 1 X Janus Green stain, incubat-ing for 5 min at RT. […]
# (§3) Afterward 100 µL 0.5 M HCl for well were added and incubated for 10 min. After 10 sec-onds shaking, the OD at 595 nm was measured using the microplate reader Synergy H1 […]
# (§4) Fluorescent LDL Uptake. […] The degree of LDL uptake was measured using the Synergy H1 fluo-rescent plate reader (Winooski, VT, USA) (excitation and emission wavelengths 540 and 570 nm, respectively). Fluorescent LDL-uptake was finally assessed following optimized […]
# LDL uptake, HepG2 cells = experiment: Fluorescent LDL uptake in HepG2 cells in the presence of PCSK9; format: cell-based, human; details: 50 µM + PCSK9 4 µg/mL; Figure 3C
# Description: HepG2 cells (3 × 10^4/well) were seeded in 96-well plates and kept in complete growth medium for 2 days before treatment. The third day, cells were washed with PBS and then starved overnight (O/N) in DMEM without FBS and antibiotics. After starvation, they were treated with 4.0 μg/mL PCSK9 and 4.0 μg/mL PCSK9 + P5 and P5 analogs peptides (50 µM), and vehicle (H2O) for 2 h with at 37 °C under 5% CO2 atmosphere. Fluorescent LDL-uptake was finally assessed following optimized protocol. See Supplementary Materials for further details.
# PBS for 1.5 h at RT. LDLR primary antibody solution (1:3000 in 5% BSA in PBS, 25 µL/well) was incubated O/N at +4 °C. […] The reaction was stopped with 2 M H2SO4 and then the absorbance at 450 nm was measured using the microplate reader Synergy H1 (Winoo-ski, VT, USA). After the read, cells were stained by adding 1 X Janus Green stain, incubat-ing for 5 min at RT. […]
# as §3, §4
# SREBP-2 = experiment: Western blot, SREBP-2 protein level in HepG2; format: cell-based, human; details: 50 µM, 24 h
# Description: as §1, §2, §3, §4
sequence,measurement,setting,value
"LILPKHSDAD [Peptide P5, natural peptide derived from a peptic lupin protein hydrolysate]",metabolism during Caco-2 transport,[1],"partially metabolized in a breakdown fragment (LPKHSDAD, P5-met)"
same,transport by differentiated Caco-2 cells,[1],successfully transported
same,"LDLR protein level (words, P5)",LDLR,augmentation of the LDLR protein levels
same,ability to absorb LDL in presence of PCSK9,"LDL uptake, HepG2 cells",improved
same,"SREBP-2 protein level (words, P5)",SREBP-2,upregulation of the SREBP-2 transcription factor level
